# From paper PMC7377239, “Cardiovascular Effects of Polychlorinated Biphenyls and Their Major Metabolites” (Environmental Health Perspectives, 2020)
# Like-named read-outs stand apart in the source and are kept apart here.
# Test system: iCell cardiomyocytes (human iPSC-derived cardiomyocytes)
# Test: High-content imaging of cytotoxicity and mitochondrial integrity in iPSC-CMs
# Assay type: cell-based
# Conditions: Homo sapiens, Cardiomyocyte; for viability at 0.01 µM / activity at 0.01 µM / viability at 0.1 µM / activity at 0.1 µM / viability at 1 µM / activity at 1 µM / viability at 10 µM / activity at 10 µM / viability at 100 µM / activity at 100 µM: 0.00 µM = 100.00; for viability at 0.1 µM / activity at 0.1 µM: 0.10 µM
# Procedure, shortened: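 Readouts from high-content images were normalized to vehicle controls containing 0.5% vol/vol DMSO. They were fit to a four-parameter logistic model in R. Points of departure were set using a cutoff of one standard deviation across vehicle control means. Where no concentration–response was seen, the top tested concentration of 100μM was assigned as the no observable adverse effect level.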
# [1] = 1.5 h, 90min, read-out: cm.cam.90min
# [2] = 1.5 h, 90min, read-out: cm.mii.90min
# [3] = 1.5 h, 90min, read-out: cm.mito.90min
# [4] = 1.5 h, 90min, read-out: cm.tc.90min
# [5] = 1.5 h, 90min, read-out: cm.cam.90min POD
# [6] = 1.5 h, 90min, read-out: cm.mii.90min POD
# [7] = 1.5 h, 90min, read-out: cm.mito.90min POD
# [8] = 1.5 h, 90min, read-out: cm.tc.90min POD
# [9] = 24 h, 24hrs, read-out: cm.cam.24hrs
# [10] = 24 h, 24hrs, read-out: cm.mii.24hrs
# [11] = 24 h, 24hrs, read-out: cm.mito.24hrs
# [12] = 24 h, 24hrs, read-out: cm.tc.24hrs
# [13] = 24 h, read-out: cm.cam.24hrs POD
# [14] = 24 h, read-out: cm.mii.24hrs POD
# [15] = 24 h, read-out: cm.mito.24hrs POD
# [16] = 24 h, read-out: cm.tc.24hrs POD
compound,measurement,setting,value
Clc1ccc(Cl)c(-c2cc(Cl)ccc2Cl)c1 [PCB52],viability at 0.01 µM,[1],98.6%
same,activity at 0.01 µM,[2],115%
same,activity at 0.01 µM,[3],98.4%
same,viability at 0.01 µM,[4],98.4%
same,viability at 0.1 µM,[1],95.8%
same,activity at 0.1 µM,[2],118%
same,activity at 0.1 µM,[3],95.7%
same,viability at 0.1 µM,[4],95.6%
same,viability at 1 µM,[1],101%
same,activity at 1 µM,[2],107%
same,activity at 1 µM,[3],102%
same,viability at 1 µM,[4],102%
same,viability at 10 µM,[1],106%
same,activity at 10 µM,[2],94.2%
same,activity at 10 µM,[3],106%
same,viability at 10 µM,[4],106%
same,viability at 100 µM,[1],0.44%
same,activity at 100 µM,[2],12.8%
same,activity at 100 µM,[3],0.55%
same,viability at 100 µM,[4],1.04%
same,minimal effective concentration,[5],36 µM
same,minimal effective concentration,[6],10.4 µM
same,minimal effective concentration,[7],39.2 µM
same,minimal effective concentration,[8],38.9 µM
same,viability at 0.01 µM,[9],93.5%
same,activity at 0.01 µM,[10],103%
same,activity at 0.01 µM,[11],91.8%
same,viability at 0.01 µM,[12],94.3%
same,viability at 0.1 µM,[9],98.9%
same,activity at 0.1 µM,[10],117%
same,activity at 0.1 µM,[11],99.3%
same,viability at 0.1 µM,[12],98.8%
same,viability at 1 µM,[9],95.8%
same,activity at 1 µM,[10],112%
same,activity at 1 µM,[11],95.8%
same,viability at 1 µM,[12],96.3%
same,viability at 10 µM,[9],92%
same,activity at 10 µM,[10],103%
same,activity at 10 µM,[11],90.3%
same,viability at 10 µM,[12],92.3%
same,viability at 100 µM,[9],3.37%
same,activity at 100 µM,[10],5.38%
same,activity at 100 µM,[11],0.14%
same,viability at 100 µM,[12],7.71%
same,minimal effective concentration,[13],7.5 µM
same,minimal effective concentration,[14],34.4 µM
same,minimal effective concentration,[15],7.32 µM
same,minimal effective concentration,[16],8.11 µM
Clc1ccc(Cl)c(-c2c(Cl)ccc(Cl)c2Cl)c1 [PCB95],viability at 0.01 µM,[1],98.2%
same,activity at 0.01 µM,[2],114%
same,activity at 0.01 µM,[3],97.8%
same,viability at 0.01 µM,[4],97.9%
same,viability at 0.1 µM,[1],95.8%
same,activity at 0.1 µM,[2],100%
same,activity at 0.1 µM,[3],95.4%
same,viability at 0.1 µM,[4],95.4%
same,viability at 1 µM,[1],93.8%
same,activity at 1 µM,[2],109%
same,activity at 1 µM,[3],93.2%
same,viability at 1 µM,[4],93.1%
same,viability at 10 µM,[1],107%
same,activity at 10 µM,[2],110%
same,activity at 10 µM,[3],107%
same,viability at 10 µM,[4],107%
same,viability at 100 µM,[1],0.65%
same,activity at 100 µM,[2],92.8%
same,activity at 100 µM,[3],0.97%
same,viability at 100 µM,[4],1.11%
same,minimal effective concentration,[5],36.6 µM
same,minimal effective concentration,[6],100 µM
same,minimal effective concentration,[7],39.6 µM
same,minimal effective concentration,[8],38.7 µM
same,viability at 0.01 µM,[9],97.2%
same,activity at 0.01 µM,[10],90.3%
same,activity at 0.01 µM,[11],95.7%
same,viability at 0.01 µM,[12],97.3%
same,viability at 0.1 µM,[9],98.9%
same,activity at 0.1 µM,[10],99%
same,activity at 0.1 µM,[11],99%
same,viability at 0.1 µM,[12],99%
same,viability at 1 µM,[9],99.8%
same,activity at 1 µM,[10],100%
same,activity at 1 µM,[11],97.7%
same,viability at 1 µM,[12],98.7%
same,viability at 10 µM,[9],93.8%
same,activity at 10 µM,[10],95.1%
same,activity at 10 µM,[11],92.7%
same,viability at 10 µM,[12],93.5%
same,viability at 100 µM,[9],1.96%
same,activity at 100 µM,[10],34.3%
same,activity at 100 µM,[11],1.73%
same,viability at 100 µM,[12],2.9%
same,minimal effective concentration,[13],8.98 µM
same,minimal effective concentration,[14],22.2 µM
same,minimal effective concentration,[15],8.96 µM
same,minimal effective concentration,[16],8.75 µM
Clc1ccc(-c2cc(Cl)c(Cl)c(Cl)c2)cc1Cl [PCB126],viability at 0.01 µM,[1],107%
same,activity at 0.01 µM,[2],97.6%
same,activity at 0.01 µM,[3],108%
same,viability at 0.01 µM,[4],107%
same,viability at 0.1 µM,[1],101%
same,activity at 0.1 µM,[2],106%
same,activity at 0.1 µM,[3],101%
same,viability at 0.1 µM,[4],101%
same,viability at 1 µM,[1],97.4%
same,activity at 1 µM,[2],111%
same,activity at 1 µM,[3],97.2%
same,viability at 1 µM,[4],97.2%
same,viability at 10 µM,[1],97.1%
same,activity at 10 µM,[2],103%
same,activity at 10 µM,[3],96.8%
same,viability at 10 µM,[4],96.8%
same,viability at 100 µM,[1],97.2%
same,activity at 100 µM,[2],111%
same,activity at 100 µM,[3],96.7%
same,viability at 100 µM,[4],96.7%
same,minimal effective concentration,[5],100 µM
same,minimal effective concentration,[6],100 µM
same,minimal effective concentration,[7],100 µM
same,minimal effective concentration,[8],100 µM
same,viability at 0.01 µM,[9],94.2%
same,activity at 0.01 µM,[10],109%
same,activity at 0.01 µM,[11],94%
same,viability at 0.01 µM,[12],93.7%
same,viability at 0.1 µM,[9],97.6%
same,activity at 0.1 µM,[10],80.7%
same,activity at 0.1 µM,[11],96.1%
same,viability at 0.1 µM,[12],98%
same,viability at 1 µM,[9],101%
same,activity at 1 µM,[10],103%
same,activity at 1 µM,[11],103%
same,viability at 1 µM,[12],101%
same,viability at 10 µM,[9],90.4%
same,activity at 10 µM,[10],74%
same,activity at 10 µM,[11],88.5%
same,viability at 10 µM,[12],90.2%
same,viability at 100 µM,[9],46.6%
same,activity at 100 µM,[10],101%
same,activity at 100 µM,[11],35.6%
same,viability at 100 µM,[12],48.4%
same,minimal effective concentration,[13],7.03 µM
same,minimal effective concentration,[14],100 µM
same,minimal effective concentration,[15],7.54 µM
same,minimal effective concentration,[16],6.48 µM
